Each structure is given as a SMILES string. Bounds are passed on as bounds.

The target of one test is B-Raf (V600E) (Homo sapiens, UniProt P15056, V600E). Put plainly: Kinase test B-Raf (V600E). Type of test: biochemical. The note with it: 250 μM ATP, MEK1 substrate; read-out: IC50 value, B-Raf (V600E) inhibition test. The method, then:
In a dilution series, 10 μL aliquots of test substance solution are placed in a multiwell plate. The dilution series is selected so as to cover a range of concentrations from 2 μM to 0.128 or 0.017 nM. If necessary the initial concentration is changed from 2 μM to 10 or 0.4 μM and further dilution is carried out accordingly. The final concentration of DMSO is 5%. 10 μL of the B-Raf (V600E) kinase solution are pipetted in (containing 2.5 ng B-Raf (V600E)-kinase in 20 mM TrisHCl pH 7.5, 0.1 mM EDTA, 0.1 mM EGTA, 0.286 mM sodium orthovanadate, 10% glycerol, 1 mg/mL bovine serum albumin, 1 mM dithiothreitol) and incubated for 1 h at RT with agitation. The kinase reaction is started by the addition of 20 μL ATP solution [final concentration: 250 μM ATP, 30 mM Tris-HCl pH 7.5, 0.02% Brij, 0.2 mM sodium-orthovanadate, 10 mM magnesium acetate, phosphatase cocktail (Sigma, #P2850, dilution recommended by the manufacturer), 0.1 mM EGTA] and 10 μL MEK1 solution [containing 50 ng biotinylated MEK1 (prepared from purified MEK1 according to standard procedure, e.g. with reagent EZ-Link Sulfo-NHS-LC-Biotin, Pierce, #21335) in 50 mM Hepes pH 7.5, 150 mM NaCl, 10% glycerol, 0.02% Brij-35, 0.2 mM PMSF, 0.2 mM benzamidine] and carried out for 60 min at RT with constant agitation. The reaction is stopped by the addition of 12 μL of a 100 mM EDTA solution and incubated for a further 5 min. 55 μL of the reaction solution are transferred into a streptavidine-coated plate (e.g. Streptawell HighBond, Roche, #11989685001) and shaken gently for 1 h at RT, in order to bind biotinylated MEK1 to the plate. After removal of the liquid the plate is washed five times with 200 μL of 1×PBS, and 100 μL solution of primary antibody plus europium-labelled secondary antibody [Anti Phospho-MEK (Ser217/221), Cell Signaling #9121 and Eu-N1 labeled goat-anti-rabbit antibody, Perkin Elmer #AD01015], the primary antibody is diluted 1:2000 and the secondary antibody is added to 0.4-0.5 μg/mL diluted in Delfia Assay Buffer (Perkin Elmer, #1244-111). After 1 h agitation at RT the solution is poured away and washed five times with 200 μL Delfia Wash Buffer (Perkin Elmer #4010-00101244-114). After the addition of 200 μL Enhancement Solution (Perkin Elmer #4001-00101244-105) the preparation is shaken for 10 min at RT and then measured in a Wallac Victor using the programme “Delfia Time Resolved Fluorescence (Europium)”.
IC50 values are determined from these dosage-activity curves using the software programme (GraphPadPrizm).

The subject of a further test is SK-MEL28 cells. Put plainly: Inhibition of proliferation on cultivated human melanoma cells (SK-MEL28), AlamarBlue. The note with it: SK-MEL-28, SK-MEL28, 72 hours incubation, read-out: EC50 value, cellular SK-MEL28 assay. Type of test: cell-based. The method, then:
(§1) To measure proliferation on cultivated human tumour cells, cells of melanoma cell line SK-MEL28 [American Type Culture Collection (ATCC)] are cultivated in MEM medium, supplemented with 10% foetal calf serum, 2% sodium bicarbonate, 1 mM sodium pyruvate, 1% non-essential amino acids (e.g. from Cambrex, #BE13-114E) and 2 mM glutamine. SK-MEL28 cells are placed in 96-well flat-bottomed plates at a density of 2500 cells per well in supplemented MEM medium (see above) and incubated overnight in an incubator (at 37° C. and 5% CO2). The active substances are added to the cells in various concentrations so as to cover a range of concentrations from 50 μM to 3.2 nM. If necessary the initial concentration is changed from 50 μM to 10 μM or 2 μM and further dilution (to 0.6 nM or 0.12 nM) is carried out accordingly. After a further 72 hours incubation, 20 μl AlamarBlue reagent (Serotec Ltd., #BUF012B) is added to each well, and the cells are incubated for a further 3-6 hours. The colour change of the AlamarBlue reagent is determined in a fluorescence spectrophotometer (e.g. Gemini, Molecular Devices). EC50 values are calculated using the software programme (GraphPadPrizm).
In general terms: Alamar Blue is a resazurin reagent that responds to reducing activity.

In another test the test system is A375 cells. Put plainly: Inhibition of proliferation on cultivated human melanoma cells (A375), AlamarBlue. The note with it: A-375, A375, method as for SK-MEL28, read-out: EC50 value, cellular A375 assay. Type of test: cell-based. How it is done:
as §1
To measure proliferation on cultivated human tumour cells, cells of melanoma cell line A375 [American Type Culture Collection (ATCC)] are cultivated in MEM medium, supplemented with 10% foetal calf serum and 2% sodium bicarbonate. Test substances are tested on A375 cells according to the method described for SK-MEL28 cells (see above).

Chain of B-Raf (V600E) (P15056 whole entry V600E): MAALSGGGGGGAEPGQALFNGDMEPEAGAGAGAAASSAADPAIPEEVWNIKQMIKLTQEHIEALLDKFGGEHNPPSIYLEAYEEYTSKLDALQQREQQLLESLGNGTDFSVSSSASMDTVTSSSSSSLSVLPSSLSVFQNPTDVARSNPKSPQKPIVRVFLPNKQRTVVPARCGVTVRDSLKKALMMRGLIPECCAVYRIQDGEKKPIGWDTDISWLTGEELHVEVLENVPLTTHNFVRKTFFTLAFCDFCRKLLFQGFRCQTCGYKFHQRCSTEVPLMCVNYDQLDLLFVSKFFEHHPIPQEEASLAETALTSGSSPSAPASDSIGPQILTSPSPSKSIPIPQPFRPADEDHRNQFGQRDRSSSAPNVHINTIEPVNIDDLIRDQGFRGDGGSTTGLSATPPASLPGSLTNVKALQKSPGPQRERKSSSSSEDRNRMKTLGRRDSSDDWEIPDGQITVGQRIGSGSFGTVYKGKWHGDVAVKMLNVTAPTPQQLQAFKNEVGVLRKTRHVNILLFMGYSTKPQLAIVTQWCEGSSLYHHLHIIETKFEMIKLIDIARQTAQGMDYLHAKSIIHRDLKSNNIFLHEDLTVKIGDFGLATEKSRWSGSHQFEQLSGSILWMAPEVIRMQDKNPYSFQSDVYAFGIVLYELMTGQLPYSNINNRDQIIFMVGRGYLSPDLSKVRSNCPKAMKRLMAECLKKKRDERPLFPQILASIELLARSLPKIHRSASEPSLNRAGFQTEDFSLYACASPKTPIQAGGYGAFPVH

As to `Cc1ccc(C(=O)Nc2cc(C(C)(C)C)n[nH]2)cc1-c1csc(-c2cccnc2)n1` [Example 5b-a], the IC50 (usually the concentration that gives 50% inhibition) on B-Raf (V600E) was < 0.5 µM. Besides, the EC50 in the test with SK-MEL28 cells and with A375 cells was < 5 µM throughout.

Take `Cc1ccc(C(=O)Nc2ccc(Cl)c(C(F)(F)F)c2)cc1-c1csc(-c2cccnc2)n1` [Example 5b-b]: the 50% inhibitory concentration (IC50) at B-Raf (V600E) was < 0.5 µM.

With `COc1c(NC(=O)c2ccc(C)c(-c3nc(-c4cccnc4)no3)c2)cc(C(C)(C)C)cc1NS(C)(=O)=O` [Example 3a], the IC50 on B-Raf (V600E) is < 0.5 µM. Also, the EC50 in the test on SK-MEL28 cells and in the test with A375 cells was < 5 µM throughout.

Consider `Cc1ccc(C(=O)Nc2ccc(Cl)c(C(F)(F)F)c2)cc1-c1noc(-c2cccnc2)n1` [Example 2b], for which the IC50 on B-Raf (V600E) was < 0.5 µM. Also, the EC50 (as a rule, the concentration at which the effect is half-maximal) in the test with A375 cells is < 5 µM.

Regarding `Cc1ccc(C(=O)Nc2cc(C(C)(C)C)on2)cc1-c1c[nH]c(-c2cccnc2)n1` [Example 6c], the EC50 with SK-MEL28 cells and with A375 cells was < 5 µM throughout.

As to `COc1c(NC(=O)c2ccc(C)c(-c3noc(-c4cccnc4)n3)c2)cc(C(C)(C)C)cc1NS(C)(=O)=O` [Example 2a], at B-Raf (V600E), the IC50 is < 0.5 µM. The EC50 in the test with A375 cells is < 5 µM.

With `COC(=O)c1cncc(-n2cc(-c3cc(C(=O)Nc4cc(C(C)(C)C)cc(NS(C)(=O)=O)c4OC)ccc3C)nn2)c1` [Example 1a], the EC50 with SK-MEL28 cells and with A375 cells was < 5 µM throughout.

The values above are taken from patent US20100240657A1, “CHEMICAL COMPOUNDS” (BOEHRINGER INGELHEIM INTERNATIONAL GMBH, priority 2007, published 2010).
